target: Neuropilin-1 (Rattus norvegicus) (UniProt Q9QWJ9); experiment: Inhibition of biotinylated VEGF-A165 from rat recombinant NRP-1 Fc domain at 100 uM

| inhibition [%] | Molecule |
| --- | --- |
| 44.8 | CC(C)NCc1ccccc1OCc1ccc(Cl)cc1 |
| 91.5 | H-ATWLPPR-OH |
| 59.2 | CCNCc1cc(Cl)c(OCc2ccccc2Cl)c(OC)c1 |
| 45.1 | OCCNCc1ccc(OCc2ccccc2)c(Cl)c1 |
| 60.2 | CCCNCc1ccc(OCc2ccc(Cl)cc2Cl)c(OC)c1 |
| 71.5 | CCOc1cc(CNCCO)ccc1OCc1ccc(Cl)cc1Cl |
| 55.3 | Cc1cc(O)c(C(=O)COc2ccccc2)c(O)c1 |
| 60.5 | COc1cc(CNCCO)cc(Br)c1OCc1ccccc1Cl |
| 53.3 | CC(=O)Nc1ccc2nc(-c3ccccc3C)oc2c1 |
| 41.6 | CC[C@H](C)c1ccccc1OCCCCN(CC)CC |
| 47.3 | Clc1ccc(COc2ccc(CNC3CC3)cc2)cc1 |
| 52.3 | CC[C@@H](C)NCCCOc1ccc(Cl)c(C)c1C |

target: Neuropilin-1 (Rattus norvegicus, UniProt Q9QWJ9); experiment: Inhibition of biotinylated VEGF-A165 from rat recombinant NRP-1 Fc domain

| Ki [µM] | Molecule |
| --- | --- |
| 5.2 | H-ATWLPPR-OH |
| 10.7 | CCOc1cc(CNCCO)cc(Br)c1OCc1ccc(Cl)cc1Cl |
| 7.3 | COc1cc(CNCCO)cc(Cl)c1OCc1ccc(Cl)cc1Cl |
| 9.4 | COc1cc(CNC(C)c2ccccc2)cc(Br)c1OCc1ccccc1Cl (configuration not stated) |
| 11.3 | CCOc1cc(CNCc2ccccc2)cc(Cl)c1OCc1ccccc1Cl |

Reference: ChEMBL document CHEMBL3352596, “Discovery of novel inhibitors of vascular endothelial growth factor-A-Neuropilin-1 interaction by structure-based virtual screening” (Bioorg Med Chem, 2014)
